Measured values reported in publication PMC9732821, “Neurotrophic Activity and Its Modulation by Zinc Ion of a Dimeric Peptide Mimicking the Brain-Derived Neurotrophic Factor N-Terminal Region” (ACS Chemical Neuroscience, 2022).

Columns and labels:
[1] = test system: ERK; test: competition experiments, ERK phosphorylation with BDNF plus d-bdnf in differentiated SH-SY5Y cells; format: cell-based, human; conditions: BDNF 1 nM + d-bdnf 10 nM-100 µM, or d-bdnf 10 µM + BDNF 0.074 nM–10 nM; 10 min; 2 independent replicas
Text: The possibility of mimicking the function of the full-length BDNF protein by using a linear peptide fragment encompassing the first 12 amino acids of the mature NT N-terminal was already postulated.[31] Here, we named this sequence as m-bdnf (Figure 1A) and performed a systematic comparison between the performance of the full-length human BDNF produced recombinantly in Escherichia coli([32]) and (i) m-bdnf, (ii) a dimeric peptide displaying two copies of the m-bdnf sequence covalently bound by a disulfide bridge (d-bdnf), and (iii) a monomeric peptide displaying the scrambled sequence of m-bdnf (s-bdnf). We first investigated the ability of these peptides to activate the TrkB receptor. […] Specifically, an EC50 concentration of BDNF (1 nM) or of d-bdnf (10 μM) was used in combination with the increasing concentration of d-bdnf and BDNF, respectively, and the increase of ERK phosphorylation was assessed. […] Of note, we also performed a non-permeabilizing immunofluorescence analysis to quantify the membrane-bound BDNF in differentiated SH-SY5Y cells in the absence or presence of BDNF and d-bdnf (Figure S1C,D). […] The same increment was not observed upon treatment with the d-bdnf peptide, while instead we measured a slight (∼18%) decrease of the signal possibly due to the ability of the peptide to displace endogenous BDNF at the tested dose (10 μM). […]

[2] = potentiometric titration, protonation constants; format: physicochemical; conditions: 298 K
Experimental: Potentiometric measurements were carried out to give insight into the coordination environment of Zn^2+ bound to the d-bdnf peptide (Figure S5). […] The four protonation equilibria of the aspartic and glutamic residues partly overlap but, in agreement with the literature data, the aspartic β-carboxylic group is more acidic than glutamic γ-carboxylic one.[48] The potentiometric titrations were carried out exploring 0.9:1 and 2.2:1 metal to ligand molar ratio. […] The peptide forms two complex species, [ZnLH] and [ZnL]. The first one is the predominant at pH = 6, and the calculated stability constant value [logK(111) = logβ(111) – logK(011) = 5.71] indicates the involvement of three nitrogen atoms in the metal coordination environment. The [ZnL] species display a stability constant value, logβ = 7.15, higher than that of protonated species indicative of the involvement of a further nitrogen atom in the metal binding mode. In this complex species, Zn^2+ is bound to four nitrogen atoms with the involvement of two amino and two imidazole (2NH2,2NIm coordination mode). […]
Potentiometric measurements
Potentiometric titrations were carried out on a Titrando 905 automatic, using a combined glass-Ag/AgCl electrode (Metrohm, Switzerland). Solutions (2.0 mL) were thermostated at 298 K and in argon atmosphere. The ionic strength was 0.1 M in KNO3. A 0.1 M solution of KOH was used to titrate solutions containing either the peptides only (protonation constants) or the peptides with Zn2+ (complexation constants). The peptide concentrations range used was 1-2 mM in both series of experiments. At least three independent titrations were performed. Starting pH value was adjusted to 2.4 by adding HNO3 0.2 M. The titrations were carried out up to pH 8.5. Metal ion/ligand ratios between 0.9:1 and 2.2:1 were employed. To avoid systematic errors and verify reproducibility, the EMF values of each experiment were recorded at different time intervals. The data were analyzed by […]
using HYPERQUAD 2003 program 17. […]

[3] = species LH 12 (NH2), 0.1 M KNO3
[4] = species LH 13 (His), 0.1 M KNO3
[5] = species LH 14 (His), 0.1 M KNO3
[6] = species LH 15 (COO), 0.1 M KNO3
[7] = species LH 16 (COO), 0.1 M KNO3
[8] = species LH 17 (COO), 0.1 M KNO3
[9] = species LH 18 (COO), 0.1 M KNO3

HSDPARRGELSVC-C-VSLEGRRAPDSH (disulfide) [d-bdnf]
competition / additivity on ERK phosphorylation [1]: neither antagonist nor additive effects | logk (stepwise protonation, pK) ([2]; species LH 11 (NH2), 0.1 M KNO3): 7.59 | log (protonation constant) ([2]; species LH 11 (NH2), 0.1 M KNO3, at least three titrations): 7.59 | log (protonation constant) [2, 3]: 14.75 | logk (stepwise protonation, pK) [2, 3]: 7.16 | log (protonation constant) [2, 4]: 20.71 | logk (stepwise protonation, pK) [2, 4]: 5.96 | log (protonation constant) [2, 5]: 26.03 | logk (stepwise protonation, pK) [2, 5]: 5.32 | log (protonation constant) [2, 6]: 30.69 | logk (stepwise protonation, pK) [2, 6]: 4.66 | log (protonation constant) [2, 7]: 34.90 | logk (stepwise protonation, pK) [2, 7]: 4.20 | log (protonation constant) [2, 8]: 38.44 | logk (stepwise protonation, pK) [2, 8]: 3.55 | log (protonation constant) [2, 9]: 41.75 | logk (stepwise protonation, pK) [2, 9]: 3.31
